Data published in ChEMBL document CHEMBL1124350, “Retinobenzoic acids. 4. Conformation of aromatic amides with retinoidal activity. Importance of trans-amide structure for the activity” (1989).

Experiments:
HL-60 [1] = assay: Relative activity expressed as mean of ratio of effective dose of retinoic acid against HL-60 cell versus the compound; assay type: functional, Homo sapiens
HL-60 [2] = assay: Compound was tested for differentiation-inducing activity against human promyelocytic leukemia cell line HL-60; assay type: functional; details: read-out: ED50 (the source's name)

Work on `CC1(C)CCC(C)(C)c2cc3c(cc21)CN(c1ccc(C(=O)O)cc1)C3=O` yielded a Relative activity (HL-60 [1]) of 0.33 and an EC50 (HL-60 [2]) of 0.51 µM.
`CC1(C)CCC(C)(C)c2cc3c(ccn3C(=O)c3ccc(C(=O)O)cc3)cc21` showed a Relative activity (HL-60 [1]) of 2.6 and an EC50 (HL-60 [2]) of 0.065 µM.
`CC1(C)CCC(C)(C)c2cc3c(cc21)CCN3C(=O)c1ccc(C(=O)O)cc1` showed a Relative activity (HL-60 [1]) of 1.1 and an EC50 (HL-60 [2]) of 0.15 µM.
For `CN(C(=O)c1ccc(C(=O)O)cc1)c1ccc2c(c1)C(C)(C)CCC2(C)C`, the Relative activity (HL-60 [1]) was under 0.01 and the EC50 (HL-60 [2]) was over 1 µM.
For `CC1(C)CCC(C)(C)c2cc(C(=O)Nc3ccc(C(=O)O)cc3)ccc21`, the Relative activity (HL-60 [1]) was 720 and the EC50 (HL-60 [2]) was 0.00034 µM.
With `CN(C(=O)c1ccc2c(c1)C(C)(C)CCC2(C)C)c1ccc(C(=O)O)cc1` the Relative activity (HL-60 [1]) was under 0.01 and the EC50 (HL-60 [2]) was over 1 µM.
Molecule `CC1(C)CCC(C)(C)c2cc(NC(=O)c3ccc(C(=O)O)cc3)ccc21` [TAMIBAROTENE] has a Relative activity (HL-60 [1]) of 350 and an EC50 (HL-60 [2]) of 0.00079 µM.
In the case of `CC1=C(/C=C/C(C)=C/C=C/C(C)=C/C(=O)O)C(C)(C)CCC1` [TRETINOIN], the Relative activity (HL-60 [1]) is reported as 100 and the EC50 (HL-60 [2]) is reported as 0.0024 µM.
